Data published in paper PMC3076140 (Journal of medicinal chemistry, 2011).

Columns and labels:
[1] = tested on: mouse MC1 and MC3-5 receptors
[2] = tested on: melanocortin receptors; settings: lactam bridge template; cited from earlier work

MC4R versus MC3R selectivity ([1]; from EC50 values of Table 2) | agonist efficacy at all the melanocortin receptor isoforms examined ([1]; mMC1R, mMC3R, mMC4R, mMC5R, maximal efficacy compared to NDP-MSH control) | Substance | agonist activity at the melanocortin receptors [2]
5 fold | full agonists | Tyr-c[Cys-His-D-Phe-(R)-MIM(Arg)-Trp-Asn-Ala-Phe-Cys]-Tyr-NH2 [compound 7] | 
 |  | Tyr-c[β-Asp-His-DPhe-Arg-Trp-Asn-Ala-Phe-Dpr]-Tyr-NH2 (sidechain bridge or staple) | full agonist at the melanocortin receptors that is as potent as the endogenous α-MSH agonist
